Laboratory results taken from article PMC9816194, “Use of the head-twitch response to investigate the structure–activity relationships of 4-thio-substituted 2,5-dimethoxyphenylalkylamines” (Psychopharmacology, 2022).
Where two headings read alike, the source gives them in different places.

Legend:
h5-HT2C receptors = target: T1, h5-HT2C receptors (Homo sapiens, UniProt P28335); assay: 5-HT2C receptor binding, [3H]mesulergine displacement
T1 construct: expressed in transfected cells; host or cells: HEK 293 (transient), membrane preparations
T1 sequence (P28335 33-458): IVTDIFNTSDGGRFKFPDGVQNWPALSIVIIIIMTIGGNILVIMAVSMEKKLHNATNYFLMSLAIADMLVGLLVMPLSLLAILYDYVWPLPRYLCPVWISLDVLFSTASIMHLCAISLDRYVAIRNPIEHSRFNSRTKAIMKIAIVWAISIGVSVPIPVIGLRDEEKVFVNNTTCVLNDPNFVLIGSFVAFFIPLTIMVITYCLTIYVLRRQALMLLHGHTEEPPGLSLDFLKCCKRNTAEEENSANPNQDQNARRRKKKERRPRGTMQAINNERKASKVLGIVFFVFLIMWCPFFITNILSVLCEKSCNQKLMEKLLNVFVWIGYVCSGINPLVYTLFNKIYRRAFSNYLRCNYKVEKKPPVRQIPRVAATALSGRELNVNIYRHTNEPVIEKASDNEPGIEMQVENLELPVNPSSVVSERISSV
Description: (§1) 5-HT receptor binding affinities were assessed as previously described in detail (Luethi et al. [2018]). In brief, membrane preparations of transiently transfected HEK 293 cells were incubated with selective radioligands at concentrations equal to the corresponding Kd and then ligand displacement by the test drugs was measured. The difference between the total binding and the nonspecific binding determined in the presence of selective competitors was defined as specific binding. The following radioligands and competitors, respectively, were used: 0.40 nM [^3H]ketanserin and 10 μM spiperone (serotonin 5-HT2A receptor), 1.4 nM [^3H]mesulergine and 10 μM mianserin (serotonin 5-HT2C receptor). The IC50 values of the radioligand binding assays were determined using nonlinear regression curves for every drug in a one-site model. Ki values corresponding to the dissociation constants were calculated with the Cheng-Prusoff equation.

human 5-HT2A receptor [1] = target: T2, human 5-HT2A receptor (Homo sapiens, UniProt P28223); assay: Agonist activity at the 5-HT2A receptor, FLIPR calcium flux in NIH-3T3 cells; type: cell-based; design: expressed in transfected cells
Description: NIH-3T3 cells stably expressing the human 5-HT2A receptor were incubated in HEPES-Hank’s Balanced Salt Solution (HBSS) buffer (Gibco, Zug, Switzerland; 70,000 cells/100 μL) for 1 h at 37 °C in poly-D-lysine-coated 96-well plates. Thereafter, 100 μL of dye solution (fluorescence imaging plate reader [FLIPR] calcium 5 assay kit dye solution; Molecular Devices, Sunnyvale, CA, USA) was added to each well and the plates were incubated for 1 h at 37 °C. The plates were then placed into a FLIPR and 25 μL of the test drugs diluted in HEPES-HBSS containing 250 mM probenicid was added to each well online. The increase in fluorescence was measured for 51 s, and EC50 values were derived from the concentration–response curves using nonlinear regression.

human 5-HT2B receptor = target: T3, human 5-HT2B receptor (Homo sapiens, UniProt P41595); assay: Agonist activity at the 5-HT2B receptor, FLIPR calcium flux in HEK 293 cells; type: cell-based
T3 construct: expressed in transfected cells
Description: HEK 293 cells stably expressing the human 5-HT2B receptor were incubated overnight in poly-D-lysine-coated 96-well plates at a density of 50,000 cells per well and 37 °C. Thereafter, the growth medium was removed by snap inversion and 200 μL of no wash dye (FLIPR calcium 6 assay kit; Molecular Devices, Sunnyvale, CA, USA) was added to each well. The plates were incubated for 2 h at 37 °C and then placed into a FLIPR. Fifty microliters of the test drugs diluted in assay buffer was added to each well online and the increase in fluorescence was measured for 51 s. EC50 values were derived from the concentration–response curves using nonlinear regression.

male C57BL/6 J mice = assay: Head-twitch response (HTR), magnetometer coil recording; type: in vivo; conditions: for HTR Counts (Mean ± SEM): 30 min; for ED50: Mus musculus, 0.5 h, HTR, IP, 30 min recording, male C57BL/6 J mice; for maximum number of head twitches (mean ± SEM): during the 30-min assessment period; for reduction of HTR potency versus 2C-T-7: replacement of the 4-n-propylthio group of 2C-T-7
Description: Male C57BL/6 J mice (Jackson Laboratory, Bar Harbor, ME) were housed in a vivarium at the University of California San Diego (UCSD), which is an AAALAC-approved animal facility that complies with Federal and State requirements for care and treatment of laboratory animals. The mice (6–8 weeks old) were housed in a climate-controlled room with a reversed light-cycle (lights on at 19:00 h, off at 07:00 h) up to 4 animals per cage. Food and water were provided ad libitum, except during behavioral testing which occurred between 10:00 and 18:00 h. All experiments were conducted according to NIH guidelines and were approved by the UCSD animal care committee.
Head movement was recorded using a head-mounted magnet and a magnetometer coil (Halberstadt and Geyer [2013]). Briefly, mice were anesthetized, a small incision was made in the scalp, and a neodymium magnet was attached to the dorsal surface of the cranium using dental cement. Following a 1–2-week recovery period, behavioral experiments were conducted in a well-lit room with at least 7 days between sessions to avoid any carryover effects. Mice were treated with vehicle or test compound and then placed in a glass cylinder surrounded by a magnetometer coil and activity was recorded for 30 min. All test substances were administered IP dissolved in saline using an injection volume of 5 mL/kg. Coil voltage was filtered (5–10 kHz lowpass), digitized (20 kHz sampling rate), and saved to disk using a Powerlab/8SP with LabChart v 7.3.2 (ADInstruments, Colorado Springs, CO). To detect head twitches, events in the recordings were converted into scalograms using a wavelet transform and then the images were classified using a multistage approach combining the deep convolutional neural network (CNN) ResNet-50 with a support vector machine (SVM) algorithm (Halberstadt [2020]). HTR counts were analyzed using a one-way Welch analysis of variance (ANOVA). Post hoc pairwise comparisons were performed using Dunnett’s test. […] Median effective doses (ED50 values) and 95% confidence intervals were calculated using nonlinear regression (Prism ver. 9.0.2, GraphPad Software Inc, San Diego, CA, USA).

human 5-HT2A receptor [2] = target: T2, human 5-HT2A receptor; assay: 5-HT2A receptor binding, [3H]ketanserin displacement; design: expressed in transfected cells; host or cells: HEK 293 (transient), membrane preparations
Description: as §1

humans = conditions: cited from earlier work; for Human potency range: dose range active as psychedelic in humans
human 5-HT2A receptor [3] = target: T2, human 5-HT2A receptor; design: expressed in transfected cells; host or cells: HEK 293 (transient), membrane preparations; conditions: read-out: 5-HT2A Ki; [3H]ketanserin; ref Luethi et al. (2018); cited from earlier work
mice = conditions: ref Gonzalez-Maeso et al. 2007; Halberstadt and Geyer 2013; cited from earlier work
[4] = read-out: ED50 µmol/kg (95% CI)
[5] = p.o., ref Shulgin and Shulgin 1991, Trachsel et al. 2013

T2 sequence (P28223 whole entry): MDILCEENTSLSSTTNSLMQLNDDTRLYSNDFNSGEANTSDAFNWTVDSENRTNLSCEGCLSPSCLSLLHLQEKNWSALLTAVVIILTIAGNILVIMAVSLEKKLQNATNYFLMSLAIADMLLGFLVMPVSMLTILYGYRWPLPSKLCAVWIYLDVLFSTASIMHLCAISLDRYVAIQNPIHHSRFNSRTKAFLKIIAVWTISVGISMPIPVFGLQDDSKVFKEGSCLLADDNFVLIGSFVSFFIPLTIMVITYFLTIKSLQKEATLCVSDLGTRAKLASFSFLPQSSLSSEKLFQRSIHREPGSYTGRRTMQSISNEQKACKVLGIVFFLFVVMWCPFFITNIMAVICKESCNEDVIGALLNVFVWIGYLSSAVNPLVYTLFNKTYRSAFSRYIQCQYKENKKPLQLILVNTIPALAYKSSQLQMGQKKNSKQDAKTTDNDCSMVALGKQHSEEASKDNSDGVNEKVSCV
T3 sequence (P41595 whole entry): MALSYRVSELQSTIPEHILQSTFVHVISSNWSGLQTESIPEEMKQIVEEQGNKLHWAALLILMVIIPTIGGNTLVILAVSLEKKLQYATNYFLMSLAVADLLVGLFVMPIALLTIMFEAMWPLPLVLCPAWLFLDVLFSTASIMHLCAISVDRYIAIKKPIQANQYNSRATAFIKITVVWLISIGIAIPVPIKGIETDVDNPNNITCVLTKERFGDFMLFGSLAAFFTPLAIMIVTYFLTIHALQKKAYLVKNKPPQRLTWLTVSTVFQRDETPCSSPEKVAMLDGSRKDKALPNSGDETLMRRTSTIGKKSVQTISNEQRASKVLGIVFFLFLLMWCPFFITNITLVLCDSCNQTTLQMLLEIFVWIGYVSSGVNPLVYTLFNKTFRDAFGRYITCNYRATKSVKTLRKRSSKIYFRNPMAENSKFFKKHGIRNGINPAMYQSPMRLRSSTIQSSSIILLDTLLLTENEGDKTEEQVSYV

SMILES | HTR Counts (Mean ± SEM) (male C57BL/6 J mice; 0.3 mg/kg IP) | HTR Counts (Mean ± SEM) (male C57BL/6 J mice; 1 mg/kg IP) | HTR Counts (Mean ± SEM) (male C57BL/6 J mice; 3 mg/kg IP) | HTR Counts (Mean ± SEM) (male C57BL/6 J mice; 10 mg/kg IP) | ED50 (male C57BL/6 J mice; [4]) [µmol/kg] | ED50 (male C57BL/6 J mice; read-out: ED50 mg/kg (95% CI)) [mg/kg] | Ki (human 5-HT2A receptor [3]) [µM] | HTR Counts (Mean ± SEM) (male C57BL/6 J mice; 1.5 mg/kg IP) | HTR Counts (Mean ± SEM) (male C57BL/6 J mice; 6 mg/kg IP) | HTR Counts (Mean ± SEM) (male C57BL/6 J mice; 12 mg/kg IP) | also measured
COc1cc(SC)c(OC)cc1CC(C)N.Cl (centres unmarked) [ALEPH, 2,5-Dimethoxy-4-methylthioamphetamine hydrochloride] | 19.4 ± 1.2 | 72.0 ± 12.1 | 115.0 ± 20.9 | 74.0 ± 13.5 | 2.88 | 0.8 |  |  |  |  | Ki (h5-HT2C receptors): 0.355 ± 0.076 µM; EC50 (human 5-HT2A receptor [1]): 0.0103 ± 0.0006 µM; Emax (human 5-HT2A receptor [1]; NIH3T3, calcium flux, relative to 5-HT, read-out: h5-HT2A Emax): 80 ± 2.3%; EC50 (human 5-HT2B receptor): 0.0192 ± 0.0017 µM; Emax (human 5-HT2B receptor; HEK293, calcium flux, read-out: h5-HT2B Emax): 51 ± 2.6%; HTR Counts (Mean ± SEM) (male C57BL/6 J mice; 0.1 mg/kg IP): 7.8 ± 1.2; Ki (human 5-HT2A receptor [2]): 0.0778 µM; Human active dose range (humans; ref Shulgin and Nichols 1978, Shulgin and Shulgin 1991): 5 to 15 mg
COc1cc(SC)c(OC)cc1CCN.Cl [Compound 2C-T, 2,5-Dimethoxy-4-methylthiophenethylamine hydrochloride] |  |  | 49.3 ± 3.1 |  | 13.8 | 3.65 | 0.049 | 22.4 ± 5.9 | 61.0 ± 4.7 | 97.2 ± 8.1 | HTR Counts (Mean ± SEM) (male C57BL/6 J mice; 24 mg/kg IP): 64.8 ± 6.0; maximum number of head twitches (mean ± SEM) (male C57BL/6 J mice): 97.2 ± 8.1; Human potency range (humans; ref Shulgin and Shulgin (1991)): 60–100 mg ^[5]; Human active dose range (humans; ref Shulgin and Shulgin 1991, Shulgin et al. 1991): 60 to 100 mg
C=C(C)CSc1cc(OC)c(CCN)cc1OC.Cl [Compound 2C-T-3, 2,5-dimethoxy-4-methallylthiophenethylamine hydrochloride] | 11.3 ± 3.6 | 26.2 ± 3.4 | 67.6 ± 5.4 | 67.8 ± 7.5 | 6.12 | 1.86 | 0.011 |  |  |  | HTR Counts (Mean ± SEM) (male C57BL/6 J mice; 30 mg/kg IP): 2.2 ± 1.4; reduction of HTR potency versus 2C-T-7 (male C57BL/6 J mice): more than 50%
C=CCSc1cc(OC)c(CCN)cc1OC.Cl [Compound 2C-T-16, 4-allylthio-2,5-dimethoxyphenethylamine hydrochloride] |  |  | 101.6 ± 20.4 |  | 5.8 | 1.68 | 0.0092 | 49.6 ± 11.1 | 100.6 ± 9.6 | 51.2 ± 18.3 | HTR potency relative to 2C-T-7 (male C57BL/6 J mice; mouse, in vivo): about 50%; reduction of HTR potency versus 2C-T-7 (male C57BL/6 J mice): more than 50%
CCCCSc1cc(OC)c(CCN)cc1OC.Cl [Compound 2C-T-19, 4-n-butylthio-2,5-dimethoxyphenethylamine hydrochloride] | 14.2 ± 3.4 | 19.8 ± 1.1 | 26.6 ± 9.4 | 12.0 ± 4.1 | 3.27 | 1 | 0.0069 |  |  |  | maximum number of head twitches (mean ± SEM) (male C57BL/6 J mice): 26.6 ± 9.4
COc1cc(SCC(F)F)c(OC)cc1CCN.Cl [Compound 2C-T-21.5, 4-(2,2-difluoroethylthio)-2,5-dimethoxyphenethylamine hydrochloride] |  |  | 39.4 ± 7.2 |  | 9.97 | 3.13 | 0.014 | 26.0 ± 5.4 | 85.6 ± 9.8 | 40.4 ± 13.0 | Human potency range (humans; ref Trachsel et al. (2013)): 12–30 mg ^[6]; Human active dose range (humans; [5]): 12 to 30 mg
COc1cc(SCCCF)c(OC)cc1CCN.Cl [Compound 2C-T-28, 4-(3-fluoropropylthio)-2,5-dimethoxyphenethylamine hydrochloride] | 7.4 ± 2.0 | 25.4 ± 4.1 | 42.0 ± 6.1 | 27.2 ± 7.4 | 3.49 | 1.08 | 0.017 |  |  |  | Human active dose range (humans; [5]): 8 to 20 mg
CCN(CC)C(=O)[C@@H]1C=C2c3cccc4[nH]cc(c34)C[C@H]2N(C)C1 [LSD, lysergic acid diethylamide, reference compound] |  |  |  |  |  |  |  |  |  |  | induction of HTR (in words) (mice): induces the HTR
COc1cc(CC(C)N)cc(OC)c1OC (centres unmarked) [TMA, 3,4,5-trimethoxyamphetamine, reference compound] |  |  |  |  |  |  |  |  |  |  | Human potency range (humans; ref Shulgin and Shulgin (1991)): 100 to 250 mg
CCN(CC)C(=O)N[C@H]1C=C2c3cccc4[nH]cc(c34)C[C@H]2N(C)C1 [lisuride, reference compound] |  |  |  |  |  |  |  |  |  |  | induction of HTR (in words) (mice): does not induce the response
